Laboratory results as given in PubChem BioAssay (NCI).
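Cultured in 96-well plates, cells were exposed to test compound for 48 hours across five concentrations. The concentration for 50% growth inhibition is given as GI50. TGI denotes the concentration required for complete inhibition of growth.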

Experiments:
Experiment in all cases: NCI tumour cell line growth inhibition, 48 h
M14 melanoma = test system: M14 melanoma
HOP-62 NSCLC = test system: HOP-62 NSCLC
CAKI-1 renal = test system: CAKI-1 renal
SK-OV-3 ovarian = test system: SK-OV-3 ovarian
MALME-3M melanoma = test system: MALME-3M melanoma
UACC-257 melanoma = test system: UACC-257 melanoma
HCT-15 colon = test system: HCT-15 colon
NCI-H460 lung = test system: NCI-H460 lung
A549 NSCLC = test system: A549 NSCLC
NCI-H522 lung = test system: NCI-H522 lung

Row | Structure (SMILES) | GI50 (M14 melanoma) | TGI (M14 melanoma) | GI50 (HOP-62 NSCLC) | TGI (HOP-62 NSCLC) | GI50 (CAKI-1 renal) | TGI (CAKI-1 renal) | GI50 (SK-OV-3 ovarian) | TGI (SK-OV-3 ovarian) | GI50 (MALME-3M melanoma) | TGI (MALME-3M melanoma) | GI50 (UACC-257 melanoma) | TGI (UACC-257 melanoma) | GI50 (HCT-15 colon) | TGI (HCT-15 colon) | GI50 (NCI-H460 lung) | TGI (NCI-H460 lung) | GI50 (A549 NSCLC) | TGI (A549 NSCLC) | TGI (NCI-H522 lung) | GI50 (NCI-H522 lung)
1 | CC(C)(C)c1ccc(OCCCCCCCN2CCNCC2)cc1 | 1.55 µM | 3.02 µM | 1.3 µM | 2.92 µM | 1.46 µM | 2.81 µM | 1.82 µM | 3.92 µM | 1.6 µM | 3.17 µM | 1.98 µM | 3.8 µM | 1.64 µM | 3.38 µM | 1.83 µM | 3.47 µM | 1.72 µM | 3.6 µM |  | 
2 | NNC(=O)C(=O)N/N=C1\CCCC1C(=O)CCC(=O)Nc1cccc(Cl)c1 (configuration not stated) |  | > 100 µM |  | > 100 µM |  |  |  |  |  | > 100 µM |  | > 100 µM |  |  |  | > 100 µM |  | > 100 µM |  | 
3 | NC(=O)c1c(-c2ccccc2)c(-c2ccccc2)cc2c(=O)c3ccccc3[nH]c12 |  | > 100 µM |  | 58.5 µM |  |  |  | 54.2 µM |  | 37.1 µM |  | > 100 µM |  | > 100 µM |  | 76.8 µM |  | 50.6 µM | 20 µM | 
4 | O=C1CC[C@@H]2[C@H]3CCC(=O)c4c3c(c3cccc(O)c3c4O)O[C@@]23C(=O)c2cccc(O)c2C(O)=C13 |  |  | > 100 µM | > 100 µM |  |  |  |  |  |  | > 100 µM | > 100 µM | > 100 µM | > 100 µM | > 100 µM | > 100 µM | > 100 µM | > 100 µM | > 100 µM | > 100 µM
5 | O=c1oc2cc(O)ccc2cc1-c1nc2ccccc2o1 |  | > 100 µM |  | > 100 µM |  | > 100 µM |  |  |  | > 100 µM |  | > 100 µM |  | > 100 µM |  | > 100 µM |  | > 100 µM | 56.1 µM | 
6 | COc1c(O)ccc(/C=N/NC(=S)NCOCCOC(C)=O)c1OC |  | > 100 µM |  | > 100 µM |  |  |  | > 100 µM |  | > 100 µM |  | > 100 µM |  | > 100 µM |  | > 100 µM |  | > 100 µM | > 100 µM | 
7 | Cc1nc2sc(C(=O)Nc3cccc4c3OCCO4)c(N)c2cc1C(C)O (configuration not stated) | 3.01 µM | > 100 µM | 5.35 µM | > 100 µM | 4.91 µM | > 100 µM | 5.75 µM | > 100 µM |  |  |  |  | 3.26 µM | > 100 µM | 3.58 µM | > 100 µM | 6.25 µM | > 100 µM | > 100 µM | 2.5 µM
8 | Cc1nc2ccccc2c(/C=C/c2ccc(C(F)(F)F)cc2)c1C(=O)/C=C/c1ccccc1 |  |  | 1.64 µM | 3.16 µM | 1.23 µM | 2.51 µM | 1.54 µM | 2.98 µM | 1.6 µM | 3.02 µM | 1.61 µM | 3.17 µM | 1.1 µM | 3.16 µM | 1.13 µM | 2.57 µM | 1.79 µM | 4.73 µM | 3.07 µM | 1.33 µM
9 | O=C1c2ccccc2C(=O)N1CCN(CCN1C(=O)c2ccccc2C1=O)Cc1ccccc1 |  | > 100 µM |  | > 100 µM |  | > 100 µM |  | > 100 µM |  |  |  | > 100 µM |  | > 100 µM |  | > 100 µM |  | > 100 µM | > 100 µM | 
10 | O=C1C=C(c2ccccc2)NC1(c1ccccc1)c1cc(-c2ccccc2)[nH]c1-c1ccccc1 (configuration not stated) |  | > 100 µM |  | 19 µM |  | > 100 µM |  | > 100 µM |  |  |  | > 100 µM |  | > 100 µM |  | > 100 µM |  | > 100 µM |  | 
11 | Cc1ccc(-c2csc3ncnc(Nc4cccc(O)c4)c23)cc1 | 17.9 µM | 37.3 µM | 21.8 µM | 49.6 µM |  |  | 38.6 µM | > 100 µM |  |  | 17.5 µM | 38.9 µM | 19.8 µM | 44.5 µM | 29.2 µM | 76.3 µM | 41.8 µM | 92.5 µM | 62.1 µM | 18.5 µM
12 | O=S(=O)(c1ccccc1)C1(C2(S(=O)(=O)c3ccccc3)CCN=N2)CCN=N1 (configuration not stated) |  | > 100 µM |  |  |  | > 100 µM |  | > 100 µM |  | > 100 µM |  | > 100 µM |  | > 100 µM |  | > 100 µM |  | > 100 µM | > 100 µM | 
13 | O=[N+]([O-])C(=C1c2ccccc2-c2ccccc21)[N+](=O)[O-] |  | > 100 µM |  | > 100 µM |  | > 100 µM |  |  |  |  |  | > 100 µM |  | > 10 µM |  | > 100 µM |  | > 100 µM | > 100 µM | 
14 | O=C(N/N=C/c1coc2ccc(Cl)cc2c1=O)c1cc(O)c(O)c(O)c1 | 19.3 µM | 47 µM | 38.8 µM | 89.4 µM | 25 µM | 70 µM | > 100 µM | > 100 µM |  |  | 39.9 µM | > 100 µM | 21.5 µM | 79.7 µM | > 100 µM | > 100 µM | 31.4 µM | > 100 µM | > 100 µM | 38.4 µM
15 | C=CCC(NCc1ccccc1)c1cn(C(=O)OCC)c2ccccc12 (configuration not stated) | 18.6 µM | 39.2 µM | 24.6 µM | 64.6 µM | 18.5 µM | 41.6 µM | 44.7 µM | > 100 µM |  |  | 23.8 µM | 49.5 µM | 20.9 µM | 55 µM | > 100 µM | > 100 µM | 31.5 µM | > 100 µM | 42.6 µM | 19.8 µM
16 | COc1cc(Br)c(C=Nc2cccc3ccc(OS(=O)(=O)c4ccc([N+](=O)[O-])cc4)cc23)cc1OC |  |  |  | > 100 µM |  | > 100 µM |  | > 100 µM |  | > 100 µM |  | > 100 µM |  | > 100 µM |  | > 100 µM |  | > 100 µM | > 100 µM | 
17 | O=C1OC(=O)c2c1cc1cc3c(cc1c2-c1ccc2c(c1)OCO2)OCO3 |  | > 100 µM |  |  |  | > 100 µM |  |  |  | > 100 µM |  | > 100 µM |  | > 100 µM |  | > 100 µM |  | > 100 µM | > 100 µM | 
18 | CC1(C)CCOC(Sc2ccccc2)C1 (configuration not stated) |  | > 100 µM |  | > 100 µM |  | > 100 µM |  | > 100 µM |  |  |  | > 100 µM |  | > 100 µM |  | > 100 µM |  | > 100 µM | > 100 µM | 
19 | O=S(=O)([O-])c1ccc(C=Nc2ccccc2)c([O-])c1.O=S(=O)([O-])c1ccc(C=Nc2ccccc2)c([O-])c1.[Co+2] | 6.5 µM | > 100 µM |  |  |  |  | > 100 µM | > 100 µM | 99.1 µM | > 100 µM | > 100 µM | > 100 µM | 45.5 µM | > 100 µM |  |  | 55.2 µM | > 100 µM | > 100 µM | > 100 µM
20 | CC[P+](C)(C)CC |  | > 100 µM |  | > 100 µM |  |  |  | > 100 µM |  | > 100 µM |  | > 100 µM |  | > 100 µM |  | > 100 µM |  | > 100 µM |  | 
21 | COc1cc2c(cc1OCCCN1CCN(CCCOc3cc4c(cc3OC)C(=O)N3C[C@H](F)C[C@H]3C=N4)CC1)N=C[C@@H]1C[C@@H](F)CN1C2=O | 0.0441 µM | 0.198 µM | 0.013 µM | 0.0418 µM | 0.0683 µM | 2 µM | 0.07 µM | > 100 µM | 0.0334 µM | 0.154 µM | 0.127 µM | 0.363 µM | 2.15 µM | 12.9 µM | < 0.01 µM |  |  |  | 1.16 µM | < 0.041 µM
22 | COC(=O)c1cc2c3cc(Cl)ccc3[nH]c2c2ncccc12 |  |  | > 100 µM | > 100 µM | > 100 µM | > 100 µM | > 100 µM | > 100 µM | > 100 µM | > 100 µM | > 100 µM | > 100 µM | > 100 µM | > 100 µM | > 100 µM | > 100 µM | > 100 µM | > 100 µM | > 100 µM | > 100 µM
23 | N/N=C1\C(=O)N(c2ccc(Cl)c(Cl)c2)C(=O)C1C(=O)Nc1ccc(Cl)c(Cl)c1 (configuration not stated) |  | > 100 µM |  | > 100 µM |  |  |  |  |  | > 100 µM |  | > 100 µM |  | > 100 µM |  | > 100 µM |  | > 100 µM | > 100 µM | 
24 | COc1cc(/C=C2\CC3C4CC=C5C[C@@H](N6CCCC6)CC[C@]5(C)C4CC[C@]3(C)[C@H]2OC(C)=O)ccc1OCCCn1ccnc1 (some centres not stated) | 0.304 µM | 0.752 µM | 0.435 µM | 1.08 µM | 0.641 µM | 2.63 µM |  |  |  |  | 2.29 µM | 5.27 µM | 0.135 µM | 0.483 µM | 0.531 µM | > 19.2 µM | 2.79 µM | 10.3 µM | > 27.5 µM | 3.86 µM
25 | Cc1ccc(C)c(NC(=O)C(=O)C(C2C(C)CC(=O)C2CC(=O)O)[N+](=O)[O-])c1 (configuration not stated) |  | > 100 µM |  | > 100 µM |  | > 100 µM |  | > 100 µM |  | > 100 µM |  | > 100 µM |  | > 100 µM |  | > 100 µM |  | > 100 µM |  | 
26 | O=C(NCCc1nccs1)c1cnc2c(S)cccc2c1 | 3.5 µM | 38.6 µM | 4.13 µM | 20.9 µM | 3.22 µM | 37.4 µM | 3.56 µM | 15 µM | 4.03 µM | 52.4 µM | 3.77 µM | 15.3 µM | 3.49 µM | 88.6 µM | 0.685 µM | 11.4 µM | 3.18 µM | 13.3 µM |  | 
